Test results from patent US5587382A, “6,9-bis[(2-aminoethyl) amino]benzo [g]isoquinoline-5,10- dione dimaleate; an aza-anthracenedione with reduced cardiotoxicity” (priority 1995, dated 1996).

How the values were obtained:
[1] = Cyclic voltammetry in aqueous media (redox potential); type: physicochemical; details: for E1/2 (reduction potential): room temperature, saturated calomel reference, scan rate 0.4 V/s
Experimental: The anthracene 9,10-dione moiety is known to undergo redox processes. The results of cyclic voltammetry measurements in aqueous media are reported in FIG. 1 and summarized as reduction potentials in Table 1.
Cyclic voltammetry (CV) measurements were performed at room temperature using an Amel scanning potentiostat at the following settings: Initial potential -0.1 V, switching potential […], scan rate 0.4 V/s. A three electrode system was used with a reference saturated calomel electrode and a platinum wire counter electrode; a hanging mercury drop electrode (HMDE, Metrohm) was the working electrode.

heart [2] = assay: Histopathological evaluation of potential cardiotoxic effect in nude mice during antitumor activity tests (MX-1 bearing); type: in vivo, mouse (CD1 Nu/Nu female); details: for cardiotoxicity (conclusion): antitumor protocol, equiactive doses
Experimental: During an antitumor activity experiment histopathologic examination was carried out on plastic sections (blue toluidine stained) of hearts of some animals sacrificed at the end of the observation period.
In this experiment (Table 2) CD1 Nu/Nu female mice (8 animals/groups) were transplanted sc with tumor fragments of human mammary carcinoma MX-1. BBR 2778 (60 mg/kg/day) and mitoxantrone (4.5 mg/kg/day) (i.e., at their equiactive doses) were i.v. given once a week for three weeks when tumor weight reached an average of 100-200 mg; animals were sacrificed 60 days after the last treatment.
Myocardial lesions were scored according to Bertazzoli, C. et al. (1979) Cancer Treat., Rep.: 63, 1877-1883. Briefly, lesions are scored as follows:
1: sarcoplasmatic microvacuolizations and/or inclusions, and either interstitial or cellular edema;
2: as in 1 plus either sarcoplasmatic macrovacuolizations or one or more of atrophy, necrosis, fibrosis, endocardial lesions and thrombi;
0.5: less than 10 single altered myocytes in the whole heart section;
1: scattered single altered myocytes (>10);
2: scattered small groups of altered myocytes;
3: widely spread small groups of altered myocytes;
4: confluent groups of altered myocytes;
The product of severity degree (1 or 2) times the extension degree (from 0 to 5) gives the T.C.S. (total cardiotoxicity score, graded from 0 to 10) for each animal. Mean Total Score (M.T.S.) for each group is calculated from T.C.S. of all the group animals.

heart [3] = assay: Single dose cardiotoxicity in i.v. treated rats (Study No. 1); type: in vivo, rat (S.D. Crl:CDBR, male); details: 6 weeks; for Heart Weight (%): control 100
Description: (§1) In the rat (Study No. 1, Table No. 3), the respective effects on the myocardium of BBR 2778 and mitoxantrone were compared. Both drugs were i.v. administered in single equitoxic doses (LD10). In the mouse (Study No. 2, Table No. 4), the respective effects on the myocardium of BBR 2778, mitoxantrone, and doxorubicin, using multiple i.v. equiactive doses with similar activity on solid tumors, were compared. Also in the mouse, in a different study (Study No. 3, Table No. 5), the respective effect on the myocardium of i.v. BBR 2778 dose-active range on murine leukemia was compared with mitoxantrone.
(§2) Cardiac lesions in the three studies were evaluated in accordance with a qualitative/quantitative method expressly devised for anthracyclines (Bertazzoli C. et al. Cancer Treat. Rep. 63:1877-1883, 1979; Solcia E. et al. Tumori, 67:461-472, 1981).
Strain: S.D. (Crl:CDBR)
mixtoxantrone 4.9 mg/kg
(§3) heart weight and microscopic lesions
paraffin sections of heart (formalin fixed
and haematoxilineos in stained) collected 6
(§4) the product of severity degree (1 or 2)
(§5) times the extension degree (from 0 to 5)
(§6) gives the T.C.S. (Total Cardiotoxicity
(§7) Score, graded from 0 to 10) for each
(§8) animal. M.T.S. (Mean Total Score) for each
(§9) group is calculated from the T.C.S. of all

leukemia = assay: Previous antitumor activity studies against leukemia in CD2F1 mice; type: in vivo, mouse (CD2F1); details: BBR 2778 12 mg/kg/day, mitoxantrone 3 mg/kg/day i.v.
heart [4] = assay: Cardiotoxic effects (general statement of the invention); details: in vivo
[5] = polarographic; Showalter et al 1986; cited from earlier work
tumors = details: cited from earlier work; for cardiac toxicity (background): clinical / background; for antitumor activity: in vivo
heart [6] = assay: Multiple dose cardiotoxicity in i.v. treated mice (Study No. 2); type: in vivo, mouse (C57BL/6NCrlBR, female)
Description: as §1, §2, §3
(§10) plastic sections of heart (formalin fixed
and blue toluidine stained) collected 60
and 90 days from the first treatment
as §4, §5, §6, §7, §8, §9

heart [7] = assay: Multiple dose cardiotoxicity in i.v. treated mice (Study No. 3); type: in vivo, mouse (CD1, female)
Description: as §1, §2
______________________________________
mixtoxantrone 1.1, 1.8 & 2.5
Treatment: twice a week for 5 weeks (10 dosing)
low- and mid- dose treated groups;
twice a week for 4 weeks (7 dosing) in high-
dose treated groups. In these groups, the
administration was suspended because of the
high-dose treated group.
as §10
and blue toluidine stained) collected 78
and 139 days from the first administration
as §4, §5, §6, §7, §8, §9

bone marrow = assay: Myelotoxicity study (RBC, WBC, PLT counts); type: in vivo, mouse (CD2F1, male); details: 3 mg/kg/day i.v. days 1, 4, 7; at nadir day
Experimental: Using CD2F1 mice, the respective effects on the bone marrow of BBR 2778 and mitoxantrone were compared. The drugs were administered i.v. in multiple doses.
Compounds: BBR 2778 12 mg/kg/day
mixtoxantrone 3 mg/kg/day
Parameters: red blood cells (RBC), white blood cells
Equipment: Delcon Cellanalyzer CA580A

human liver = details: metabolic reduction by NADPH; cited from earlier work
[8] = equivalent concentrations; cited from earlier work
myocardium = details: mice; cited from earlier work
[9] = cyclic voltammetry, aqueous media
[10] = 65.1 mg/kg i.v. single dose (LD10)
[11] = 6 mg/kg i.v., cumulative 24 mg/kg, 60 days after first administration
[12] = 6 mg/kg i.v., cumulative 24 mg/kg, 90 days after first administration
[13] = 7.5 mg/kg i.v., cumulative 30 mg/kg, 60 days after first administration
[14] = 7.5 mg/kg i.v., cumulative 30 mg/kg, 90 days after first administration
[15] = 4.9 mg/kg i.v. single dose (LD10)
[16] = 3 mg/kg i.v., cumulative 12 mg/kg, 60 days after first administration
[17] = 3 mg/kg i.v., cumulative 12 mg/kg, 90 days after first administration
[18] = 4 mg/kg i.v., cumulative 16 mg/kg, 60 days after first administration
[19] = 4 mg/kg i.v., cumulative 16 mg/kg, 90 days after first administration

NCCNc1ccc(NCCN)c2c1C(=O)c1ccncc1C2=O.O=C(O)/C=C\C(=O)O.O=C(O)/C=C\C(=O)O [BBR 2778, 6,9-bis[(2-aminoethyl)amino]benzo[g]isoquinoline-5,10-dione dimaleate]
redox process [1, 9]: reversible | E1/2 (reduction potential) [1, 9]: -0.54 | reduction potential lower than for mitoxantrone (difference) ([1]; vs mitoxantrone): 0.2-0.3 V | cardiotoxicity (conclusion) (heart [2]): does not exert significant cardiotoxicity patterns | M.T.S. (Mean Total Score) (heart [3]; [10]): 0 | No. affect. hearts / No. exam. hearts (heart [3]; [10]): 1/9 | Heart Weight (%) (heart [3]; [10]): -6% | antitumor efficacy against leukemia at the dose and schedule employed (leukemia): equally effective | cardiotoxic effects (heart [4]): devoid of cardiotoxic effects

NCCNc1ccc(NCCN)c2c1C(=O)c1ccncc1C2=O [6,9-bis[(2-aminoethyl)amino]benzo[g]isoquinoline-5,10-dione]
cardiotoxic effects (heart [4]): devoid of cardiotoxic effects

COc1cccc2c1C(=O)c1c(O)c3c(c(O)c1C2=O)C[C@@](O)(C(C)=O)C[C@@H]3O[C@H]1C[C@H](N)[C@H](O)[C@H](C)O1 [daunorubicin]
E1/2 [5]: -0.625 V | cardiac toxicity (background) (tumors): severe cumulative and irreversible cardiac toxicity | antitumor activity (tumors): outstanding antitumor activity

COc1cccc2c1C(=O)c1c(O)c3c(c(O)c1C2=O)C[C@@](O)(C(=O)CO)C[C@@H]3O[C@H]1C[C@H](N)[C@H](O)[C@H](C)O1 [Doxorubicin]
M.T.S. (heart [6]; [11]): 1 | No. affect. hearts / No. exam. hearts (heart [6]; [11]): 6/6 | M.T.S. (heart [6]; [12]): 1.1 | No. affect. hearts / No. exam. hearts (heart [6]; [12]): 6/6 | M.T.S. (heart [6]; [13]): 1.5 | No. affect. hearts / No. exam. hearts (heart [6]; [13]): 6/6 | M.T.S. (heart [6]; [14]): 2.2 | No. affect. hearts / No. exam. hearts (heart [6]; [14]): 6/6 | cardiac toxicity (background) (tumors): severe cumulative and irreversible cardiac toxicity | antitumor activity (tumors): outstanding antitumor activity

O=C1c2ccccc2C(=O)c2c(NCCNCCO)ccc(NCCNCCO)c21 [Ametantrone]
E1/2 (reduction potential) [1, 9]: -0.68 | antitumor activity (tumors): significant antitumor activity

O=C1c2c(O)ccc(O)c2C(=O)c2c(NCCNCCO)ccc(NCCNCCO)c21 [Mitoxantrone]
E1/2 (reduction potential) [1, 9]: -0.74 | No. affect. hearts / No. exam. hearts (heart [2]; 4.5 mg/kg/day i.v. q7d × 3): 5/5 | cardiotoxicity (conclusion) (heart [2]): strongly cardiotoxic | M.T.S. (Mean Total Score) (heart [3]; [15]): 6 | No. affect. hearts / No. exam. hearts (heart [3]; [15]): 7/7 | Heart Weight (%) (heart [3]; [15]): -44% | M.T.S. (heart [6]; [16]): 1.4 | No. affect. hearts / No. exam. hearts (heart [6]; [16]): 6/6 | M.T.S. (heart [6]; [17]): 2.6 | No. affect. hearts / No. exam. hearts (heart [6]; [17]): 5/5 | M.T.S. (heart [6]; [18]): 1.25 | No. affect. hearts / No. exam. hearts (heart [6]; [18]): 6/6 | M.T.S. (heart [6]; [19]): 2.5 | No. affect. hearts / No. exam. hearts (heart [6]; [19]): 6/6 | M.T.S. (heart [7]; 1.1 mg/kg i.v., cumulative 11 mg/kg, 78 days after first administration): 4 | M.T.S. (heart [7]; 1.1 mg/kg i.v., cumulative 11 mg/kg, 139 days after first administration): 6 | M.T.S. (heart [7]; 1.8 mg/kg i.v., cumulative 18 mg/kg, 78 days after first administration): 6.5 | Total cardiotoxicity score (heart [7]; 1.8 mg/kg, 139 days (footnote diamond-solid)): 8 | M.T.S. (heart [7]; 2.5 mg/kg i.v., cumulative 17.5 mg/kg, 78 days after first administration): 7.1 | No. affect. hearts / No. exam. hearts (heart [7]; 2.5 mg/kg i.v., cumulative 17.5 mg/kg, 139 days after first administration): 0/0 | Total cardiotoxicity score (heart [7]; affected hearts marked °: 1.1 mg/kg 78 and 139 days, 1.8 and 2.5 mg/kg 78 days): 3-8 | mortality rate (heart [7]; high dose (2.5 mg/kg/day), administration suspended after 7 dosings): high mortality rate | leukopenia vs. controls (bone marrow): 70% | antitumor efficacy against leukemia at the dose and schedule employed (leukemia): equally effective | E1/2 [5]: -0.775 V | microsomal O2.^- formation (human liver): does not result in a significant increase in microsomal O2.^- formation | in vitro efficacy relative to doxorubicin [8]: higher efficacy than doxorubicin at equivalent concentrations | cardiac toxicity (background) (tumors): diminished cardiotoxicity when compared to doxorubicin | toxic side effects in clinical studies relative to doxorubicin (tumors; clinical studies): far less toxic side effects than those resulting from doxorubicin therapy | focal myocardial damage (histology) (myocardium): high incidence of focal myocardial damage in mice similar to that observed with doxorubicin
